{"source": "patent US10130677B2", "about": "“Antimicrobial peptide and uses thereof” (priority 2013, dated 2018)", "key": {"[1]": {"tested_on": "LTA (S. aureus)-induced IL-8 production", "experiment": "LTA neutralization in whole human blood", "assay_type": "cell-based", "settings": "LTA-induced IL-8; blood from one donor", "text": "The term “anti-inflammatory activity” of a polypeptide as used herein refers to inhibiting, reducing or preventing an inflammatory response in a subject that has been infected by microbes, e.g. bacteria, viruses, fungi, and/or parasites. Anti-inflammatory activity of polypeptides of the invention is achieved by inhibiting, reducing or preventing the release of pro-inflammatory microbial compounds, such as lipoteichoic acid (LTA), peptidoglycan (PG) and/or lipopolysaccharides (LPS). Anti-inflammatory activity can be measured by methods known in the art. Examples of such method are a LPS neutralization assay and a LTA neutralization assay as described in the Examples of this application. In such method, a polypeptide of the invention is mixed with a fixed concentration of LPS or LTA, such as 500 ng/ml LPS or 2 mg/ml LTA, and incubated for 30 min. Thereafter, these mixtures were added to diluted fresh human whole blood and 20 hours thereafter the level of cytokines (e.g. 1L-8 for LTA and 1L-12p40 for LPS) in the blood sample are measured by ELISA.\nPeptides were pre-incubated with 500 ng/ml LPS (E. coli 054) or 2 mg/ml LTA (S. aureus, endotoxin-free) or 1×10^9 CFU/ml of UV-killed S. aureus JAR060131 for 30 min at 37° C. Diluted whole human blood was stimulated with the peptide-LPS/LTA/S. aureus mixtures for 20 hours at 37° C. IL-12p40 and IL-8 levels in supernatants were determined using ELISA."}, "[2]": {"tested_on": "bacteria", "assay_type": "cell-based", "text": "The currently known AMPs, including OP-145, still have a few drawbacks. For instance, various bacteria, such as P. aeruginosa, E. faecalis, Proteus mirabilis, Streptococcus pyogenes and S. aureus all secrete proteases that degrade several antimicrobial peptides, such as the cathelicidin LL-37. Thus, protease resistant antimicrobial peptides are advantageous from a therapeutical standpoint. Furthermore, due to potential lytic effect as well as other properties of AMPs against bacterial but also mammalian membranes, one of the challenges in designing new peptides relies on developing AMPs with high specificity against microorganisms such as bacterial or fungal cells as compared to cellular membranes of the infected patient, i.e., a high therapeutic index (minimal hemolytic concentration/minimal antimicrobial activity; MHC/MEC). Another important disadvantage of known AMPs, including OP-145, is that its activity is strongly affected by the presence of plasma components. For instance, for OP-145 the LC99.9 (the lowest peptide concentration which kills ≥99.9% of bacteria) in PBS of 1.6 μM, whereas the LC99.9 in PBS/plasma (1:1) is about 200 μM. This is in particular a disadvantage for systemically administered AMPs."}, "[3]": {"tested_on": "A. niger PagsA-lux", "experiment": "Effect on fungal growth", "assay_type": "cell-based, Aspergillus niger", "procedure": "The effect of the peptides on fungal growth was assessed using Aspergillus niger. Peptides were incubated with 7.5×10^4 spores/ml of A. niger PagsA-lux in PBS without or with addition of pooled human plasma at a final concentration of 25%. As positive control, spores were treated with the antifungal caspofungin (Cancidas). Absorbance was measured over time and at 16 hours, fungal growth was visualized using light microscopy."}, "[4]": {"tested_on": "Candida albicans Y-O1", "assay_type": "cell-based", "procedure": "Peptides were incubated with 1×10^5 cells/ml of a mid-logarithmic culture of Candida albicans Y-O1, without or with addition of pooled human plasma at a final concentration of 50%. Antimicrobial activity is expressed as the 99% lethal concentration (LC99), i.e., the lowest peptide concentration at which ≥99% of cells were killed after 2 hours of incubation at 37° C. under shaking conditions."}}, "note": "Like-named read-outs stand apart in the source and are kept apart here."}
{"substance": "Ac-IGKEFKRIVERIKRFLRELVRPLR-NH2 [OP-145, JIGKEFKRIVERIKRFLRELVRPLRB, reference compound]", "values": [{"measurement": "IC50", "setting": "[1]", "value": 0.781, "unit": "µM"}, {"measurement": "LC99.9", "setting": "[2]; PBS", "value": 1.6, "unit": "µM"}, {"measurement": "LC99.9", "setting": "[2]; PBS/plasma (1:1)", "value": "about 200 μM"}, {"measurement": "concentration inhibiting A. niger growth", "setting": "[3]; 25% plasma, light micrographs only, 16 hours (FIG. 2)", "value": 204.8, "unit": "µM"}, {"measurement": "concentration inhibiting A. niger growth (by >99.9%)", "setting": "[3]; PBS, optical density (FIG. 1)", "value": 3.2, "unit": "µM"}, {"measurement": "antifungal activity against C. albicans Y-O1 (in words)", "setting": "[4]; 50% plasma, at 204.8 μM", "value": "no antifungal activity was observed"}, {"measurement": "LC99", "setting": "[4]; 50% plasma, mean of two experiments", "value": ">204.8", "unit": "µM"}, {"measurement": "antifungal activity against C. albicans Y-O1 (in words)", "setting": "[4]; PBS, at 51.2 μM", "value": "no antifungal activity"}, {"measurement": "LC99", "setting": "[4]; Y-O1, 2 h", "value": ">51.2", "unit": "µM"}]}
